Data reported in PMC6522930, “Design, synthesis and biological activity evaluation of a new class of 2,4-thiazolidinedione compounds as insulin enhancers” (Journal of Enzyme Inhibition and Medicinal Chemistry, 2019).

How the values were obtained:
PPARα = target: T1, PPARα (Homo sapiens, UniProt Q07869); experiment: In vitro activation of PPARα (cells containing PPAR, EC50); assay type: cell-based; conditions: n ≥ 8; 24 h; read-out: EC50 ± SD PPARα
T1 construct: expressed in transfected cells
T1 sequence (Q07869 1-468): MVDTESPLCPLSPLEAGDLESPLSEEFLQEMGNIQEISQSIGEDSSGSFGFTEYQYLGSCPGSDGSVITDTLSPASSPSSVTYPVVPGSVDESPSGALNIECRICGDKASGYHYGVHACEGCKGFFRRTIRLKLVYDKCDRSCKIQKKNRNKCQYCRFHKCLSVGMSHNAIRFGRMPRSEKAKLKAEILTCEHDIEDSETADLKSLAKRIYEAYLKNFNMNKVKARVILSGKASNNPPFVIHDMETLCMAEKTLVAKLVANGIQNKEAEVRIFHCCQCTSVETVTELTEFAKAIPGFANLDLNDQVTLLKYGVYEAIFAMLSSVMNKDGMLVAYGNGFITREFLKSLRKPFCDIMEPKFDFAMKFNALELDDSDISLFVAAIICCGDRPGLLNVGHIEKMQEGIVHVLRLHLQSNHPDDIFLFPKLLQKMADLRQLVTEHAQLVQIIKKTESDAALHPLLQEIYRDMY
Experimental: (§1) According to the literature, the cells containing PPAR (α, β and γ) were obtained and transfected into 96-well plates the day before for cells culture. Transfection was performed according to the instructions of human PPAR enzyme-linked immunoassay. […] After 24 h, the drugs were added, and 20 μl of MTT was added to each well for another 6 h, and the cell liquid was collected by removing the culture medium, and 150 μl of DMSO was added to each hole. And the absorbance value (A) of each hole was measured under the wavelength of 460 nm.

PPARγ = target: T2, PPARγ (Homo sapiens, UniProt P37231); experiment: In vitro activation of PPARγ (cells containing PPAR, EC50); assay type: cell-based; conditions: n ≥ 8; 24 h; read-out: EC50 ± SD PPARγ
T2 construct: expressed in transfected cells
T2 sequence (P37231 1-505): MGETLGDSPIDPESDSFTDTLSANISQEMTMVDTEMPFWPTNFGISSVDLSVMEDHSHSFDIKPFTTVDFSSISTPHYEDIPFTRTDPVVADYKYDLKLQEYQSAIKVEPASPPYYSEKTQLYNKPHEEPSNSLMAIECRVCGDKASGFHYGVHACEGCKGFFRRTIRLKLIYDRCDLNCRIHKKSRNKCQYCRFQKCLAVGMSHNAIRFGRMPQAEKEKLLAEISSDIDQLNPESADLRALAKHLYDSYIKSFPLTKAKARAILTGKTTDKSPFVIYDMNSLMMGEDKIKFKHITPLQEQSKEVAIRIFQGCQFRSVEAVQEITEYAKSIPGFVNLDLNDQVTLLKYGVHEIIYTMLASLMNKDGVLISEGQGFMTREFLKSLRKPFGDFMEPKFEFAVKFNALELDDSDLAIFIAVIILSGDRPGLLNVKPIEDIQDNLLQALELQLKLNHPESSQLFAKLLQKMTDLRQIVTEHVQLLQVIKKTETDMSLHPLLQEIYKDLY
Experimental: as §1

[1] = Lipid–water partition coefficient (log p); assay type: physicochemical
Source text: (§2) Drug in vitro experiment was one of the basic contents to evaluate drugs activity, and it was a necessary approach to research drugs. Drugs’ efficacy was often affected by some physical and chemical properties of compounds, such as lipid–water partition coefficient (log p), and dissociation degree (pKa). […] In Table 1, we could find that target compounds were fat-soluble. The fat-soluble compounds were favourable for drugs absorption, and drugs were easy to enter the cells. […] The pKa will affect the absorption and delivery of the drugs, different environmental (acid and alkalinity) medicine may be different, sometimes exists in the form of ions, sometimes exists in the form of molecules. Usually in the form of ion drugs has no effect. Therefore, it was necessary to study the dissociation degree (pKa) of drugs to study the pharmacodynamics. […] After the physical and chemical properties were studied, the biological activity was studied. […] After that, the target compounds 6a, 6e, 6f, 6g and 6i had good biological activity and were preliminarily screened out for further study on PPARγ receptor agonist activity (Figure 5).

[2] = Dissociation degree (pKa); assay type: physicochemical
Source text: as §2

healthy mice [3] = experiment: Oral glucose tolerance test; assay type: in vivo; conditions: for Blood glucose levels 1 h / Blood glucose levels 2 h / Blood glucose levels 0 h: 10 mg kg^−1 d^−1 oral for 10 d; for Blood glucose levels 1 h: 1 h after sugar load; for Blood glucose levels 2 h: 2 h after sugar load; for Blood glucose levels 0 h: fasted 12 h, before sugar load; for Effect in glucose tolerance test (in words): 10 mg kg^−1 d^−1 oral, 10 d
Experimental: In vivo experiments, glucose tolerance test, insulin tolerance test, cell survival experiment and acute toxicity were used as the test indicators (Tables 2, [3] and [4]). In Table 2, we chose dose 10 mg kg^−1 d^−1 and used oral administration. […] The mice were given the drug for 10 d, blood was collected from the tail vein of the mice before and after the sugar load for 1 h and 2 h, and the blood glucose level of the mice before and after the sugar load was measured by the glucometer.
(§3) (1) Glucose tolerance test: The healthy mice (20 ± 2 g) were selected. After 1 week of acclimation, mice with no body surface damage, good general condition and flexible reaction were selected for the experiment. The test compounds were dissolved with DMSO, and were given a dose volume of 0.2 ml 10 g^−1, and a dose of 10 mg kg^−1, and given by gavage (oral) once a day. […] The mice were given the drug for 10 d, and after the last dose, the mice fasted for 12 h. The next day, blood was collected from the tail vein of the mice before and after the sugar load for 1 h and 2 h, and the blood glucose level of the mice before and after the sugar load was measured by the glucometer. […] The 12 h of fasting after the last administration, blood was taken from the orbital venous plexus (used to measure the blood glucose level after fasting). Each group was immediately given a subcutaneous injection of 0.2 μg kg^−1 of insulin. After 1 h and 2 h of injection, blood was taken again. (3) Cell survival experiment: The HUVEC cells were inoculated on the 96-well plate at the initial concentration of 3 × 10^3 cells/holes, and 100 μl RPMI 1640 medium were added to each hole. At 5% CO2 and 37 °C cell cultivation in 24 h, every pore solution in different concentrations. […] And determine the hole under 460 nm wavelength absorbance value (A).

healthy mice [4] = experiment: Insulin tolerance test (blood glucose under insulin load); assay type: in vivo; conditions: for Effect in insulin tolerance test (in words): 10 mg kg^−1 d^−1; for Blood glucose levels 1 h / Blood glucose levels 2 h / Blood glucose levels 0 h: 10 mg kg^−1 d^−1 for 15 d; for Blood glucose levels 1 h: 1 h after s.c. insulin 0.2 μg kg^−1; for Blood glucose levels 2 h: 2 h after s.c. insulin 0.2 μg kg^−1; for Blood glucose levels 0 h: fasted 12 h, before insulin
Experimental: as §3

HUVEC cells = experiment: Cell survival experiment (cytotoxicity); assay type: cell-based; conditions: for Cytotoxic effect (in words): 10^−3–10^−2 mol L^−1; for Cell survival rate: HUVEC cells
Experimental: as §3

[5] = Acute toxicity test (LD50); assay type: in vivo; conditions: oral administration; n ≥ 3

Compound	EC50 (PPARα)	EC50 (PPARγ)	logP [1]	pKa [2]	Blood glucose levels 1 h (healthy mice [3])	Blood glucose levels 2 h (healthy mice [3])	Blood glucose levels 0 h (healthy mice [3])	Effect in glucose tolerance test (in words) (healthy mice [3])	Effect in insulin tolerance test (in words) (healthy mice [4])	Blood glucose levels 1 h (healthy mice [4])	Blood glucose levels 2 h (healthy mice [4])	Blood glucose levels 0 h (healthy mice [4])	Cytotoxic effect (in words) (HUVEC cells)	Cell survival rate (HUVEC cells; 10^−2 mol l^−1)	Cell survival rate (HUVEC cells; 10^−3 mol l^−1)	Cell survival rate (HUVEC cells; 10^−4 mol l^−1)	Cell survival rate (HUVEC cells; 10^−5 mol l^−1)	Cell survival rate (HUVEC cells; 10^−6 mol l^−1)	LD50 ± SD [5]
O=C1NC(=O)C(Cc2ccc(OCCNC(=O)c3ccccn3)cc2)S1 (centres unmarked) [Compound 6c, N-(2-(4-((2,4-dioxothiazolidin-5-yl)methyl)phenoxy)ethyl) picolinamide]	13 ± 1.56 µM	450 ± 210 nM	1.92	10	–	–	–	–	–	–	–	–	–	–	–	–	–	–	–
Cc1ccc(C(=O)NCCOc2ccc(CC3SC(=O)NC3=O)cc2)cc1 (centres unmarked) [Compound 6e, N-(2-(4-((2,4-dioxothiazolidin-5-yl)methyl)phenoxy)ethyl)-4-methylbenzamide]	–	30 ± 10 nM	3.26	9.77	6.003 ± 1.876 mmol/L	2.953 ± 0.876 mmol/L	3.312 ± 0.301 mmol/L	good resistance activation to glucose	good resistance activation to insulin	1.762 ± 0.453 mmol/L	2.463 ± 1.211 mmol/L	5.411 ± 1.002 mmol/L	no obvious cytotoxic effect	94.3 ± 1.02%	99.1 ± 0.08%	100%	100%	100%	2451.2 ± 1.24 mg/kg
Cc1ccc(C(=O)NCCOc2ccc(CC3SC(=O)NC3=O)nc2)nc1 (centres unmarked) [Compound 6h, N-(2-((6-((2,4-dioxothiazolidin-5-yl)methyl)pyridin-3-yl)oxy)ethyl)-5-methylpicolinamide]	10.6 ± 1.86 µM	280 ± 130 nM	2.01	9.41	–	–	–	–	–	–	–	–	–	–	–	–	–	–	–
Cc1ccc(C(=O)NCCOc2ccc(CC3SC(=O)NC3=O)cc2)nc1 (centres unmarked) [Compound 6g, N-(2-(4-((2,4-dioxothiazolidin-5-yl)methyl)phenoxy)ethyl)-5-methylpicolinamide]	–	80 ± 30 nM	2.83	9.45	6.445 ± 2.220 mmol/L	3.677 ± 1.730 mmol/L	3.112 ± 0.279 mmol/L	good resistance activation to glucose	good resistance activation to insulin	1.843 ± 0.544 mmol/L	2.566 ± 1.224 mmol/L	5.613 ± 1.246 mmol/L	no obvious cytotoxic effect	90.5 ± 1.54%	98.6 ± 0.44%	99.8 ± 0.09%	100%	100%	2138.8 ± 1.36 mg/kg
